# Measurements: ChEMBL document CHEMBL1146968, “Novel skeleton terpenes from Celastrus hypoleucus with anti-tumor activities” (Bioorg Med Chem Lett, 2006)
# Key:
# Assay type in all cases: functional, cell-based
# SMMC-7721 = test: Antitumor activity against human SMMC7721 cell line by MTT assay
# Bcap37 = test: Antitumor activity against human Bcap37 cell line by MTT assay
# RKO = test: Antitumor activity against human RKO cell line by MTT assay
# K562 = test: Antitumor activity against human K562 cell line by MTT assay
compound,measurement,setting,value
CO[C@@]12[C@H](COC(N)=O)C3=C(C(=O)C(C)=C(N)C3=O)N1C[C@@H]1N[C@@H]12 [MITOMYCIN],IC50,SMMC-7721,2.44 µg/mL
same,IC50,Bcap37,2.33 µg/mL
same,IC50,RKO,1.75 µg/mL
same,IC50,K562,3.35 µg/mL
CC1(C)CC[C@]2(C)CC[C@]3(C)C(=CC[C@@H]4[C@@]5(C)CC[C@H](O)C(C)(C)[C@@H]5[C@@H](O)C[C@]43C)C2C1 (some centres not stated),IC50,SMMC-7721,22.7 µg/mL
same,IC50,Bcap37,14.6 µg/mL
same,IC50,RKO,12.2 µg/mL
same,IC50,K562,11.2 µg/mL
CC1=C(C)[C@@H]2CC(=O)c3cc(O)c(O)cc3[C@@]2(C)CC1 [CELAHYPODIOL],IC50,SMMC-7721,38 µg/mL
same,IC50,Bcap37,24.4 µg/mL
same,IC50,RKO,27.2 µg/mL
same,IC50,K562,16.2 µg/mL
